The values below come from patent US5696112A, “Fused heterocyclic azepines as vasopressin antagonists” (American Cyanamid Company, priority 1995, dated 1997).

As a reminder, the IC50 is the point on the concentration scale where inhibition reaches its midpoint. Low readings indicate greater potency, high ones weaker potency. By inhibition is commonly meant the drop in the measured response relative to a control, in per cent. Low readings indicate a weak effect, high ones a strong effect.

Structures are written as SMILES.

For test [1], the target named is T1, Rat Kidney Medullary V2 Receptors (vasopressin V2) (Rattus norvegicus, UniProt Q00788).
T1 construct: Medullary tissues from rat kidneys are dissected out; from tissue; host or cells: rat kidney medulla membranes
Kind of test: Binding Assay to Rat Kidney Medullary V2 Receptors. Particulars: rat kidney medullary V2, [3H]Arg8-vasopressin. How it is done: Binding Assay to Rat Kidney Medullary V2 Receptors
Medullary tissues from rat kidneys are dissected out, cut into small pieces and let soak in a […] sodium chloride solution containing 1.0 mM EDTA with many changes of the liquid phase, until the solution is clear of blood. The tissue is homogenized in a 0.25M sucrose solution containing 1.0 mM EDTA and 0.1 mM PMSF using a Potter-Elvehjem homogenizer with a teflon pestle. The homogenate is filtered through several layers (4 layers) of cheese cloth. The filtrate is rehomogenized using a dounce homogenizer, with a tight fitting pestle. The final homogenate is contrifuged at 1500×g for 15 min. The nuclear pellet is discarded and the supernatant fluid recentrifuged at 40,000×g for 30 min. The resulting pellet formed contains a dark inner part with the exterior, slightly pink. The pink outer part is suspended in a small amount of 50.0 mMTris.HCl buffer, pH 7.4. The protein content is determined by the Lowry's method (Lowry et al, J. Biol. Chem., 1953). The membrane suspension is stored at -70° C., in 50.0 mMTris.HCl, containing 0.2% inactivated BSA and 0.1 mM PMSF in aliquots of 1.0 ml containing 10.0 mg protein per ml of suspension until use in subsequent binding experiments.
For binding experiments, the following is added in μl volume to wells of a 96 well format of a microtiter plate: 100.0 μl of 100.0 mM Tris.HCl buffer containing 0.2% heat inactivated BSA, 10.0 mM MgCl2 and a mixture of protease inhibitors: leupeptin, 1.0 mg %; aprotinin, 1.0 mg %; 1,10-phenanthroline, 2.0 mg %; trypsin inhibitor, 10.0 mg % and 0.1 mM PMSF, 20.0 μl of [^3 H]Arginine^8, vasopressin (S.A. 75.0 Ci/mmole) at 0.8 nM and the reaction initiated by the addition of 80.0 μl of tissue membranes (200.0 μg tissue protein). The plates are left undisturbed on the bench top for 120 min. to reach equilibrium. Non-specific binding is assessed in the presence of 1.0 μM of unlabeled ligand, added in 20 μl volume. For test compounds, these are solubilized in 50% dimethylsulfoxide (DMSO) and added in 20.0 μl volume to a final incubation volume of 200 μl. Upon completion of binding, the content of each well is filtered off, using a Brandel® cell Harvester (Gaithersburg, Md.). The radioactivity trapped on the filter disk by the ligand-receptor complex is assessed by liquid scintillation counting in a Packard LS Counter, with an efficiency of 65% for tritium. The data are analyzed for IC50 values by the LUNDON-2 program for competition (LUNDON SOFTWARE, OH).

Test [2] deals with T2, Vasopressin V1 Receptor Subtype in Human Platelet Membranes (Homo sapiens, UniProt P37288).
T2 construct: tissue Hudson Valley Blood Services, Westchester Medical Center, Valhalla, N.Y; host or cells: human platelet membranes from frozen platelet rich plasma
Kind of test: Binding to V1 Receptor Subtype in Human Platelet membranes. As for the experimental part: Radioligand Binding Experiments with Human Platelet Membranes
Platelet Source: Hudson Valley Blood Services, Westchester Medical Center, Valhalla, N.Y.
Platelet Membrane Preparation:
Frozen platelet rich plasma (PRP), received from the Hudson Valley Blood Services are thawed to room temperature. The tubes containing the PRP are centrifuged at 16,000×g for 10 min. at 4° C. and the supernatant fluid discarded. The platelets resuspended in an equal volume of 50.0 mMTris.HCl, pH 7.5 containing 120 mM NaCl and 20.0 mM EDTA. The suspension is recentrifuged at 16,000×g for 10 min. This washing step is repeated one more time. The wash is discarded and the lysed pellets homogenized in low ionic strength buffer of Tris.HCl, 5.0 mM, pH 7.5 containing 5.0 mM EDTA. The homogenate is centrifuged at 39,000×g for 10 min. The resulting pellet is resuspended in Tris.HCl buffer, 70.0 mM, pH 7.5 and recentrifuged at 39,000×g for 10 min. The final pellet is resuspended in 50.0 mM Tris.HCl buffer pH 7.4 containing 120 mM NaCl and 5.0 mM HCl to give 1.0-2.0 mg protein per ml of suspension.
Binding to Vasopressin V1 Receptor Subtype in Human Platelet Membranes:
In wells of a 96 well format microtiter plate, add 100 μl of 50.0 mM Tris.HCl buffer containing 0.2% BSA and a mixture of protease inhibitors (aprotinin, leupeptin etc.). Then add 20 μl of [^3 H]Ligand: (Manning or Arg^8 Vasopressin), to give final concentrations ranging from 0.01 to 10.0 nM. Initiate the binding by adding 80.0 μl of platelet suspension (approx. 100 μg protein). Mix all reagents by pipetting the mixture up and down a few times. Non-specific binding is measured in the presence of 1.0 μM of unlabeled ligand (Manning or Arg^8 Vasopressin). Let the mixture stand undisturbed at room temperature for ninety (90) min. Upon this time, rapidly filter off the incubate under vacuum suction over GF/B filters, using a Brandel® Harvester. Determine the radioactivity caught on the filter disks by the addition of liquid scintillant and counting in a liquid scintillator

The next test concerns the target T3, oxytocin receptors (Rattus norvegicus, UniProt P70536).
T3 construct: The uteri are dissected out, cleaned of fat and connective tissues; from tissue; host or cells: uterus membranes of DES-treated female Sprague-Dawley rats
T3 sequence (P70536 1-388): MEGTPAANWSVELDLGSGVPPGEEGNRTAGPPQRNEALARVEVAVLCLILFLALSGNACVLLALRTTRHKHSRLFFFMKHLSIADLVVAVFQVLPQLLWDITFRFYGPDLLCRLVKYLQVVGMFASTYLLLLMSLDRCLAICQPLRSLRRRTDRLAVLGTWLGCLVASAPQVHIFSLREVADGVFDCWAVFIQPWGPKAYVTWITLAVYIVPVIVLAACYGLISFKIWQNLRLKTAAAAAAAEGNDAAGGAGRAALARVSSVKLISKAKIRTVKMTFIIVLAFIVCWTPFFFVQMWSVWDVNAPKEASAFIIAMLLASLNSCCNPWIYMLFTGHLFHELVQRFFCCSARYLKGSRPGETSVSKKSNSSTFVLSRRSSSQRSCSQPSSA
Nature of the test: Oxytocin Receptor Binding. Details: species or system Sprague-Dawley rats. Particulars: 10 μM. As for the experimental part: Oxytocin Receptor Binding
Female Sprague-Dawley rats weighing approximately 200-250 g are injected intramuscularly (i.m.) with 0.3 mg/kg of body weight of diethylstilbestrol (DES). The rats are sacrificed 18 hours later under pentobarbital anesthesia. The uteri are dissected out, cleaned of fat and connective tissues and rinsed in 50 ml of normal saline. The tissue pooled from six rats is homogenized in 50 ml of 0.01 mMTris.HCl, containing 0.5 mM dithiothreitol and 1.0 mM EDTA, adjusted to pH 7.4, using a polytron at setting 6 with three passes of 10 sec each. The homogenate is passed through two (2) layers of cheesecloth and the filtrate centrifuged at 1000×g for 10 min. The clear supernatant is removed and recentrifuged at 165,000×g for 30 min. The resulting pellet containing the oxytocin receptors is resuspended in 50.0 mM Tris.HCl containing 5.0 mM MgCl2 at pH 7.4, to give a protein concentration of 2.5 mg/ml of tissue suspension. This preparation is used in subsequent binding assays with [^3 H]Oxytocin.
Binding of 3,5-[^3 H]Oxytocin ([^3 H]OT) to its receptors is done in microtiter plates using [^3 H]OT, at various concentrations, in an assay buffer of 50.0 mM Tris.HCl, pH 7.4 and containing 5.0 mM MgCl2, and a mixture of protease inhibitors: BSA, 0.1 mg; aprotinin, 1.0 mg; 1,10-phenanthroline, 2.0 mg; […], 10.0 mg; and PMSF, 0.3 mg per 100 ml of buffer solution. Nonspecific binding is determined in the presence of 1.0 uM unlabeled OT. The binding reaction is terminated after 60 min., at 22° C., by rapid filtration through glass fiber filters using a Brandel® cell harvester (Biomedical Research and Development Laboratories, Inc., Gaithersburg, Md.). Competition experiments are conducted at equilibrium using 1.0 nM [^3 H]OT and varying the concentration of the displacing agents. The concentrations of agent displacing 50% of [^3 H]OT at its sites (IC50) are calculated by a computer assisted LUNDON-2 program (LUNDON SOFTWARE INC., Ohio, USA).

T2 sequence (P37288 whole entry): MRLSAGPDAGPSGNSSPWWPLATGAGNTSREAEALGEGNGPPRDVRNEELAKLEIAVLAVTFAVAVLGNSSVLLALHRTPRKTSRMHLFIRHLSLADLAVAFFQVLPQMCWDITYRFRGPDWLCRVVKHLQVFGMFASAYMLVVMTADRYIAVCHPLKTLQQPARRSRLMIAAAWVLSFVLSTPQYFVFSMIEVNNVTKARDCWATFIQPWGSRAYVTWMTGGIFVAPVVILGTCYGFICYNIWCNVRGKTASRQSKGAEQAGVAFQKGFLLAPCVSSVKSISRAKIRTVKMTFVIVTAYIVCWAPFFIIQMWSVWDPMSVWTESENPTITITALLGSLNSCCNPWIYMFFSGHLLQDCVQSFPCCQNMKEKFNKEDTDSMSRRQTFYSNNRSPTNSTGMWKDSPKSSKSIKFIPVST
T1 sequence (Q00788 whole entry): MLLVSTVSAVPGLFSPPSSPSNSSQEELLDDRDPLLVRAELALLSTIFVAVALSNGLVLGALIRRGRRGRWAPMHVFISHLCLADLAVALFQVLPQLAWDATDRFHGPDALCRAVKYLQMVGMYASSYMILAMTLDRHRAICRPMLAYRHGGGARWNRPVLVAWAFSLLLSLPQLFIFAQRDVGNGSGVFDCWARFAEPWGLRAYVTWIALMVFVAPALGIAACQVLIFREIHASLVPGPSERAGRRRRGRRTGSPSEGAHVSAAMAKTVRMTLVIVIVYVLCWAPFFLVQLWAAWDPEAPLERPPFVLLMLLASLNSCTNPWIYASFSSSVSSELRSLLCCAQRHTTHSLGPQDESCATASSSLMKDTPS

For the compound `Cc1ccc(F)cc1C(=O)Nc1ccc(C(=O)N2CCC=Cc3sccc32)c(Cl)c1` [Example 184, N-[4-[(5,6-Dihydro-4H-thieno[3,2-b]azepin-4-yl)carbonyl]-3-chlorophenyl]-5-fluoro-2-methylbenzamide], the IC50 came out at 0.03 µM in test [1] and 1.3 µM in test [2]. The compound also displayed an inhibition at 10 µM on oxytocin receptors of 76%.
